In patent US20170260126A1, “SQUALENE COMPOUNDS AS MODULATORS OF LDL-RECEPTOR EXPRESSION” (OXFORD UNIVERSITY INNOVATION LIMITED, priority 2014, published 2017):

How the values were obtained:
[1] = tested on: CHO pLDLR-Luciferase cells; assay: Luciferase assay (LDLR promoter-luciferase reporter in CHO cells); type: cell-based, Chinese Hamster; parameters: Emax: unit not given here; settings: 48 hours after treatment; for EC50: Cricetulus griseus
Protocol: Chinese Hamster Ovary (CHO) cells cultivated in 2×75 […] conical flasks had their media removed and washed in 5 mL of PBS before 2 mL of Trypsin was added. The cells were swirled for a minute, before being placed in the 37° C. incubator for 5 min. The conical flasks were tapped to remove cells from the bottom, and aspirated out into 2×13 mL of Ham F-12 media containing 10% FBS and 1% L-Glutamine. The cells were then spun down at 1000 rpm for 5 min. The media was aspirated off, and the pellet from each of the two flasks was resuspended in 5 mL of media. The cells were counted, plated into a 24-well plate to give 1.5×10^5 cells/well in 500 μL of media, and placed in the 37° C. incubator. 2 mL of the remaining cells was added to 38 mL of media, plated 20 mL each into 2×75 cm^2 conical flasks, and placed in the 37° C. incubator.
After 24 h, the media was aspirated out and replaced with 500 μL Lipoprotein Deficient Serum (LPDS) media. The plate was then returned to the incubator for a further 24 h.
Following this incubation, the compound to be tested was dissolved in DMSO to give a concentration of 1 mg/mL. An appropriate amount of this solution was then added to FPS media to give 5 mL at a concentration of 10 μM. Serial dilution then gave the other required concentrations, to give testing concentrations of 0.1 nM, 1 nM, 10 nM, 30 nM, 100 nM, 1 μM and 10 μM. A 1 μM compound 49 positive control was also prepared from a stock solution in DMSO, and 0.1% DMSO control was also prepared as a negative control. Each well was then treated with 500 μL of each solution, according to the plate map shown below, and the plates were placed in the incubator.
48 hours after treatment, the cell media was aspirated and cells were washed with 500 μL of PBS. 100 μL of luciferase lysis buffer (12.5 mL 1M TrisPO4 pH 7.8, 5 mL 0.2M CDTA solution, 50 mL glycerol, 5 mL Triton-X 100, 427.5 mL H2O) was added to each sample; samples were shaken for 20 min at 4° C. before being pipetted up and down, then the plate was spun at 4500 rpm for 5 min. 75 μL of lysate was pippetted into a 96-well plate. The plate was then run on a Dynex Technologies MLX 96 Well Plate Luminometer using revalation software. 100 µL of luciferase assay buffer solution and 50 μL of Luciferin solution (200 μL Luciferin 10X, 1800 μL H2O) was dispensed each time. Response was recorded in Relative Light Units (RLUs), normalised to standards from a bicinchoninic acid (BCA) assay.
Prepared using 3 mL luciferase assay buffer (7.5 mL 1M MgSO4, 7.5 mL 1M TrisPO4 pH 7.8 buffer, 20 mL 0.1M EGTA pH 7.8, 465 mL H2O), added to 60 μL of 100 mM ATP and 6 μL of 1 M DTT solution.

[2] = target: T1, Squalene Synthase (Homo sapiens, UniProt P37268); assay: Squalene Synthase activity assay in human liver microsomes with [1-3H]FPP; type: biochemical; settings: FIG. 1b
T1 construct: 12 μg human liver microsomes; from tissue; host or cells: human liver microsomes
T1 sequence (P37268 1-417): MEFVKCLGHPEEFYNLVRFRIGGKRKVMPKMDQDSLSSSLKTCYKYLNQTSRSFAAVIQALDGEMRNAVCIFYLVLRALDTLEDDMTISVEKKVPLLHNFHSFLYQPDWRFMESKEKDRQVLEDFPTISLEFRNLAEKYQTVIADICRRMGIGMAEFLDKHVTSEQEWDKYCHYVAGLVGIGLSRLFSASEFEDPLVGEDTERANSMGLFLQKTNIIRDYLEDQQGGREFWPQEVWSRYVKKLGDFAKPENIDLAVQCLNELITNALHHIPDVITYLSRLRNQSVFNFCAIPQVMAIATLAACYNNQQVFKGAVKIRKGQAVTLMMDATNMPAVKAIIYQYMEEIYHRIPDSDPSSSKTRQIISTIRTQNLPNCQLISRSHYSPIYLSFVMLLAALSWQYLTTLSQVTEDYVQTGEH
Protocol: Squalene Synthase activity assays were performed in 1 mL reactions containing 50 mM phosphate buffer (pH 7.4, 10 mM MgCl2), 12 μg human liver microsomes, [1-^3H]FPP (0.045 Ci/mmol) and 0.5 mM NADPH. Enzyme and inhibitors were incubated for 10 minutes at 37° C. Substrate was then added and reaction was incubated for 10 min at 37° C. Reaction was stopped by adding 1 mL of 15% KOH in ethanol and incubated at 65° C. for 30 minutes. 5 mL of petroleum ether was added and reaction was shaken for 10 minutes at room temperature. The lower aqueous phase was frozen and the upper organic phase transferred to fresh glass tubes containing 2 mL distilled water. 1.5 mL of the organic phase was transferred to a scintillation vial containing liquid scintillation fluid, and radioactivity was quantitated using a Beckman liquid scintillation counter. Data was analyzed using Prism Graphpad software.
As a representative example, compound 40 (Example 15; JM-086) was tested for squalene synthase inhibitory properties alongside compound 15a (Example 1), and the known squalene synthase inhibitor, YM-53601, as a positive control.

[3] = tested on: CHO pLDLR-Luciferase cells; assay: Combination therapy experiments, luciferase compound screen with simvastatin; type: cell-based, Chinese Hamster; settings: Cricetulus griseus; single agent, CHO-pLDLR-Luc, FIG. 3a/3b; read-out: EC50, increase in levels of luciferase
Protocol: As described above, CHO WT cells transfected with pLDLR-Luc (CHO-pLDLR-Luc) were grown in HamsF-12(Sigma N4888) medium supplemented with 10% fetal bovine serum (FBS), 1% penicillin/streptomycin, 1% L-glutamine, in a 5% CO2 incubator at 37° C. CHO-pLDLR-Luc were seeded in 24-well plates at 1.5×10^5 per well. After 24h cells were changed to HamsF-12(Sigma N4888) supplemented with 10% lipoprotein deficient serum (LDPS), 1% penicillin/streptomycin, 1% L-glutamine. Compounds and simvastatin (Sigma S6196) dissolved in DMSO and Cholesterol(Sigma C8667) and 25-Hydroxycholesterol(Sigma H1015) dissolved in ethanol were added 24 h after serum starvation.
Simvastatin and compound 40 (Example 15; JM-086) were added together. The compounds were added at the exact same time, with the EC50 of either compound 40 (JM-086) or Simvastatin added into the media containing increasing doses of either compound 40 (JM-086) or Simvastatin then being added to the CHO pLDLR-Luciferase cells.

## CN(C)CCCOc1ccc(/C=C/c2ccccc2)cc1 [Compound 15a, (E)-N,N-dimethyl-3-(4-styrylphenoxy)propan-1-amine]
[1]
  Emax: 5
  EC50: 0.039 µM
[2]
  squalene synthase inhibition: dose-dependent activity
other
  melting point: 75 to 77 °C

## Oc1ccc(/C=C/c2ccccc2)cc1 [Compound 32, (E)-4-styrylphenol]
[1]
  Emax: 34
  EC50: 3 µM

## CC(C)CCCOc1ccc(/C=C/c2ccccc2)cc1 [Compound 39, (E)-1-((4-methylpentyl)oxy)-4-styrylbenzene]
[1]
  Emax: 8
  EC50: 1 µM
other
  melting point: 97 to 98 °C

## OCCCOc1ccc(/C=C/c2ccccc2)cc1 [Compound 40, (E)-3-(4-styrylphenoxy)propan-1-ol]
[1]
  Emax: 32
  EC50: 0.035 µM
[2]
  squalene synthase inhibition: dose-dependent activity
[3]
  EC50: 0.0315 µM

## COCCCOc1ccc(/C=C/c2ccccc2)cc1 [Compound 41, (E)-1-(3-methoxypropoxy)-4-styrylbenzene]
[1]
  Emax: 44
  EC50: 1.5 µM
other
  melting point: 77.8 to 81 °C

## COc1ccc(/C=C/c2ccc(OCCCN(C)C)cc2)cc1 [Compound 44a, (E)-3-(4-(4-methoxystyryl)phenoxy)-N,N-dimethylpropan-1-amine]
[1]
  Emax: 30
  EC50: 0.26 µM
other
  melting point: 138 to 140 °C

## COc1cccc(/C=C/c2ccc(OCCCN(C)C)cc2)c1 [Compound 44b, (E)-3-(4-(3-methoxystyryl)phenoxy)-N,N-dimethylpropan-1-amine]
[1]
  Emax: 9
  EC50: 2.5 µM
other
  melting point: 28 to 32 °C

## COc1ccccc1/C=C/c1ccc(OCCCN(C)C)cc1 [Compound 44c, (E)-3-(4-(2-methoxystyryl)phenoxy)-N,N-dimethylpropan-1-amine]
[1]
  Emax: 8
  EC50: 0.31 µM
other
  melting point: 177.6 to 180.9 °C

## CN(C)CCCOc1ccc(/C=C/c2ccc(F)cc2)cc1 [Compound 46a, (E)-3-(4-(4-fluorostyryl)phenoxy)-N,N-dimethylpropan-1-amine]
[1]
  Emax: 24
  EC50: 2 µM
other
  melting point: 128.8 to 129.9 °C

## CN(C)CCCOc1ccc(/C=C/c2cccc(F)c2)cc1 [Compound 46b, (E)-3-(4-(3-fluorostyryl)phenoxy)-N,N-dimethylpropan-1-amine]
[1]
  Emax: 9
  EC50: 1.5 µM
other
  melting point: 56.2 to 58.6 °C

## CN(C)CCCOc1ccc(/C=C/c2ccc([N+](=O)[O-])cc2)cc1 [Compound 47a, (E)-N,N-dimethyl-3-(4-(4-nitrostyryl)phenoxy)propan-1-amine]
[1]
  Emax: 39
  EC50: 3 µM
other
  melting point: 85.2 to 85.9 °C

## CN(C)CCCOc1ccc(/C=C/c2ccccc2[N+](=O)[O-])cc1 [Compound 47c, (E)-N,N-dimethyl-3-(4-(2-nitrostyryl)phenoxy)propan-1-amine]
[1]
  Emax: 5
  EC50: 3 µM
other
  melting point: 51.9 to 57.1 °C

## CN(C)CCCOc1ccc(/C=C/c2ccccc2)cc1F [Compound 62, (E)-3-(2-fluoro-4-styrylphenoxy)-N,N-dimethylpropan-1-amine]
[1]
  Emax: 15
  EC50: 3 µM
other
  melting point: 68.2 to 72.6 °C

## COc1ccc(/C=C/c2ccccc2)cc1 [Compound 65, (E)-1-methoxy-4-styrylbenzene]
[1]
  Emax: 6
  EC50: 0.05 µM

## CNCCCOc1ccc(/C=C/c2ccccc2)cc1 [Compound 69, (E)-N-methyl-3-(4-styrylphenoxy)propan-1-amine]
[1]
  Emax: 8
  EC50: 0.32 µM
other
  melting point: 84.2 to 87.7 °C

## CCC(C)(C)C(=O)O[C@H]1C[C@@H](C)C=C2C=C[C@H](C)[C@H](CC[C@@H]3C[C@@H](O)CC(=O)O3)[C@H]21 [Simvastatin, reference compound]
[3]
  EC50: 0.128 µM
